1 compound from patent US20130142819A1, “LEISHMANICIDAL FORMULATION AND ITS USE” (priority 2010, published 2013) can be followed below.

Assay in all cases: Leishmanicidal activity, MTT viability assay, promastigotes
Common to all, as to type: cell-based
Conditions in all cases: 50 μg/mL; average ± standard deviation
For orientation: Formazan colour is commonly taken as a measure of viable cells.

Experiment [1] concerns stationary phase promastigotes of L. amazonensis. How it is done:
(§1) In a cell culture plate of 96 wells (Nunc, Nunclon®), 4×10^5 promastigote and amastigote-like forms of species Leishmania amazonensis, L. major and L. chagasi were incubated with 25 to 200 μg/mL of the aqueous extract of the fungus in RPMI-PR medium for a final volume of 100 μL, for 24 h at 25° C. Then it was added 50 uL of MTT reagent (Thiazoly Blue Tetrazolium Bromide 98%; in stock concentration of 5 mg/mL) and the plate was incubated for 4 hours at 25° C. The cells were analyzed on a microscope to verify the formation of formazan crystals. Shortly after it was added 60 μL of a SDS 10%/HCL 0.1 M solution to solubilize formazan crystals and the plate was incubated for 18 h. The absorbance readings were then performed using a spectrophotometer at a wavelength of 570 nanometers (nm) (see FIGS. 1 and 2; Table 1 and 2).
(§2) Through the absorbance readings collected in experiments, Tables 1 and 2 were generated to represent the percentage of leishmanicidal activity of aqueous extract against the three Leishmania species tested in two manners. The calculation of the percentage of death of the parasites was based in the formula below, using the absorbance readings: […]
(§3) The experiment was conducted by the cellular viability protocol by impregnating the MTT reagent and the concentration of 50 μg/mL of the aqueous extract of the fungus and the purified fractions were used. […]

For experiment [2], the system named is stationary phase promastigotes of L. chagasi. How it is done: as §1, §2, §3
Experiment [3] concerns stationary phase promastigotes of L. major. How it is done: as §1, §2, §3

Take `C[C@@H]1[C@H](O)[C@@H](C)/C=C/C=C/C=C/C=C/C=C/C=C/C=C/[C@H](O[C@@H]2O[C@H](C)[C@@H](O)[C@H](N)[C@@H]2O)C[C@@H]2O[C@](O)(C[C@@H](O)C[C@@H](O)[C@H](O)CC[C@@H](O)C[C@@H](O)CC(=O)O[C@H]1C)C[C@H](O)[C@H]2C(=O)O` [Amphotericin B, amphotericin B]: the “Average percentage of death of stationary phase promastigote forms, L. amazonensis” value in experiment [1] is given as 40.06 ± 1.17%. The “Average percentage of death of stationary phase promastigote forms, L. chagasi” value in experiment [2] was 35.12 ± 2.61%. In experiment [3], the “Average percentage of death of stationary phase promastigote forms, L. major” value was found to be 42.51 ± 2.00%.
